From the supplement of paper PMC11061612

Columns and labels:
769-P (Kidney Carcinoma) = assay: Bliss excess, mean over the matrix (fraction); higher = more synergy
Outline: (§1)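 Cell lines in DMEM/F12 or RPMI with 10% FBS were plated in 1536-well plates, held 24 hours at 37°C, 5% CO2, then given two-drug dose matrices for 72 hours (DMSO typically 0.2%). Viability was read by CellTiter-Glo 2.0 luminescence and scaled as inhibition from 0 (vehicle wells) to 1 (blank wells). Combination Emax is the second-highest inhibition in the matrix; Bliss excess is observed combination effect minus expected EA + EB − EA·EB, EA and EB being single-agent effects.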

[1] = system: KYSE-140 (Esophageal Squamous Cell Carcinoma); assay: as above
Outline: as §1

[2] = system: SK-HEP-1 (Hepatocellular Carcinoma); assay: as above
Outline: as §1

[3] = system: SW620 (Colorectal Carcinoma); assay: as above
Outline: as §1

[4] = system: huH-1 (Hepatocellular Carcinoma); assay: as above
Outline: as §1

[5] = system: 22RV1 (Prostate Carcinoma); assay: combination Emax (second highest fraction inhibited in the dose matrix, 72 h); higher = more inhibition; extreme values may be limits of the assay
Outline: as §1

[6] = system: A253 (Head and Neck Carcinoma); assay: as above
Outline: as §1

AU565 (Breast Carcinoma) = assay: as above
Outline: as §1

[7] = system: CAL-27 (Oral Cavity Carcinoma); assay: as above
Outline: as §1

[8] = system: CESS (Acute Myeloid Leukemia); assay: as above
Outline: as §1

[9] = system: GCT (Other Solid Carcinomas); assay: as above
Outline: as §1

HCC70 (Breast Carcinoma) = assay: as above
Outline: as §1

[10] = system: JHU-022 (Oral Cavity Carcinoma); assay: as above
Outline: as §1

[11] = system: JIMT-1 (Breast Carcinoma); assay: as above
Outline: as §1

[12] = system: Jurkat (T-Lymphoblastic Leukemia); assay: as above
Outline: as §1

NB13 (Neuroblastoma) = assay: as above
Outline: as §1

[13] = system: NCI-H1651 (Lung Adenocarcinoma); assay: as above
Outline: as §1

[14] = system: NCI-H2087 (Lung Adenocarcinoma); assay: as above
Outline: as §1

[15] = system: NCI-H2228 (Lung Adenocarcinoma); assay: as above
Outline: as §1

WM1552C (Melanoma) = assay: as above
Outline: as §1
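Throughout, for Bliss excess, mean over the matrix: after 72 h of two-drug dosing.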

Structure (SMILES)	Bliss excess (769-P (Kidney Carcinoma))	Bliss excess [1]	Bliss excess [2]	Bliss excess [3]	Bliss excess [4]	combination Emax [5]	combination Emax [6]	combination Emax (AU565 (Breast Carcinoma))	combination Emax [7]	combination Emax [8]	combination Emax [9]	combination Emax (HCC70 (Breast Carcinoma))	combination Emax [10]	combination Emax [11]	combination Emax [12]	combination Emax (NB13 (Neuroblastoma))	combination Emax [13]	combination Emax [14]	combination Emax [15]	combination Emax (WM1552C (Melanoma))
CC1(C)CCC(CN2CCN(c3ccc(C(=O)NS(=O)(=O)c4ccc(NCC5CCOCC5)c([N+](=O)[O-])c4)c(Oc4cnc5[nH]ccc5c4)c3)CC2)=C(c2ccc(Cl)cc2)C1 [Venetoclax] + CN(C)CCCOc1ccc(-c2ccc3ncc4c(c3c2)n(C2CCOCC2)c(=O)n4C)cn1 [AZD0156] (first compound max 1 µM, 7x7, partner max 1 µM)	-0.0276	0.0177	-0.057	-0.0142	-0.032	0.423	0.178	0.234	0.173	0.142	0.289	0.395	0.167	0.167	0.161	0.468	0.194	0.149	0.306	0.562
COc1nnc2ccc(N3CCC(c4ccc(OCCN5CCN(C)C(=O)[C@H]5C)cc4)CC3)nn12 [AZD5153] + CCN(CCO)CCCOc1ccc2c(Nc3cc(CC(=O)Nc4cccc(F)c4)[nH]n3)ncnc2c1 [AZD2811] (first compound max 1 µM, 7x7, partner max 1 µM)	-0.0217	-0.0087	-0.103	-0.0002	0.0201	0.522	0.444	0.359	0.646	0.648	0.568	0.459	0.452	0.382	0.745	0.65	0.499	0.351	0.348	0.444
NC1(C(=O)N[C@@H](CCO)c2ccc(Cl)cc2)CCN(c2ncnc3[nH]ccc23)CC1 [Capivasertib] + CCN(CCO)CCCOc1ccc2c(Nc3cc(CC(=O)Nc4cccc(F)c4)[nH]n3)ncnc2c1 [AZD2811] (first compound max 10 µM, 7x7, partner max 1 µM)	-0.0139	-0.0096	-0.0553	-0.029	-0.0695	0.544	0.695	0.819	0.646	0.654	0.636	0.745	0.446	0.284	0.717	0.534	0.203	0.256	0.533	0.447
COc1cccc2c1C(=O)c1c(O)c3c(c(O)c1C2=O)C[C@@](O)(C(=O)CO)C[C@@H]3O[C@H]1C[C@H](N)[C@H](O)[C@H](C)O1 [Doxorubicin] + Cc1cc2ncnn2cc1Nc1ncc2c(n1)n(C1CCOCC1)c(=O)n2C [AZD7648] (first compound max 1 µM, 7x7, partner max 10 µM)	0.0903	0.05	0.0292	0.0335	0.102	0.805	0.957	0.733	0.741	0.949	0.625	0.488	0.858	0.697	0.972	0.923	0.712	0.655	0.742	0.793
Cc1c2c(nn1C)CSCc1cc(n(C)n1)CSc1cc(c3ccccc3c1)OCCCc1c(C(=O)O)n(C)c3c-2c(Cl)ccc13 [AZD5991] + C=CCn1c(=O)c2cnc(Nc3ccc(N4CCN(C)CC4)cc3)nc2n1-c1cccc(C(C)(C)O)n1 [AZD1775] (first compound max 1 µM, partner max 1 µM)	-0.071	0.0145	-0.0366	-0.0272	-0.0405	0.453	0.904	1	0.972	0.967	0.556	0.951	0.451	0.763	0.972	0.902	0.813	0.481	0.55	0.779
Cc1c2c(nn1C)CSCc1cc(n(C)n1)CSc1cc(c3ccccc3c1)OCCCc1c(C(=O)O)n(C)c3c-2c(Cl)ccc13 [AZD5991] + Cn1cnc2c(F)c(Nc3ccc(Br)cc3Cl)c(C(=O)NOCCO)cc21 [Selumetinib] (first compound max 1 µM, 7x7, partner max 3 µM)	-0.035	-0.015	-0.0484	0.0005	-0.0382	0.498	0.944	1	0.988	0.289	0.427	0.994	0.398	0.284	0.927	0.263	0.218	0.588	0.249	0.884
Cn1cnc2c(F)c(Nc3ccc(Br)cc3Cl)c(C(=O)NOCCO)cc21 [Selumetinib] + CC(C)n1c(=O)n(C)c2cnc3cc(F)c(-c4ccc(OCCCN5CCCCC5)nc4)cc3c21 [AZD1390] (first compound max 10 µM, 7x7, partner max 0.3 µM)	0.0125	-0.0337	-0.0043	-0.0102	-0.0349	0.307	0.18	0.146	0.611	0.243	0.287	0.268	0.497	0.131	0.124	0.0733	0.125	0.449	0.203	0.384
CN(C)CCCOc1ccc(-c2ccc3ncc4c(c3c2)n(C2CCOCC2)c(=O)n4C)cn1 [AZD0156] + C=CCn1c(=O)c2cnc(Nc3ccc(N4CCN(C)CC4)cc3)nc2n1-c1cccc(C(C)(C)O)n1 [AZD1775] (first compound max 1 µM, partner max 1 µM)	-0.0025	-0.0031	-0.0574	-0.0262	0.0041	0.346	0.327	0.454	0.376	0.929	0.413	0.542	0.36	0.488	0.879	0.906	0.62	0.332	0.5	0.476
CN(C)CCCOc1ccc(-c2ccc3ncc4c(c3c2)n(C2CCOCC2)c(=O)n4C)cn1 [AZD0156] + CCN(CCO)CCCOc1ccc2c(Nc3cc(CC(=O)Nc4cccc(F)c4)[nH]n3)ncnc2c1 [AZD2811] (first compound max 1 µM, 7x7, partner max 1 µM)	-0.0343	0.025	-0.0194	-0.0064	0.0049	0.267	0.212	0.208	0.546	0.25	0.161	0.604	0.193	0.0631	0.309	0.479	0.107	0.0658	0.384	0.242
CC(=O)c1c(C)c2cnc(Nc3ccc(N4CCNCC4)cn3)nc2n(C2CCCC2)c1=O [Palbociclib] + Cn1cnc2c(F)c(Nc3ccc(Br)cc3Cl)c(C(=O)NOCCO)cc21 [Selumetinib] (first compound max 10 µM, 7x7, partner max 10 µM)	0.039	-0.0387	-0.114	0.0191	-0.0455	0.463	0.189	0.277	0.627	0.658	0.405	0.269	0.54	0.0628	0.386	0.333	0.0478	0.501	0.335	0.47
Cn1cnc2c(F)c(Nc3ccc(Br)cc3Cl)c(C(=O)NOCCO)cc21 [Selumetinib] + C=CCn1c(=O)c2cnc(Nc3ccc(N4CCN(C)CC4)cc3)nc2n1-c1cccc(C(C)(C)O)n1 [AZD1775] (first compound max 10 µM, partner max 1 µM)	-0.0944	-0.0514	0.0127	-0.0198	-0.116	0.406	0.336	0.644	0.578	0.944	0.384	0.562	0.529	0.6	0.875	0.794	0.574	0.559	0.453	0.458
CC(=O)c1c(C)c2cnc(Nc3ccc(N4CCNCC4)cn3)nc2n(C2CCCC2)c1=O [Palbociclib] + CC1(C)CCC(CN2CCN(c3ccc(C(=O)NS(=O)(=O)c4ccc(NCC5CCOCC5)c([N+](=O)[O-])c4)c(Oc4cnc5[nH]ccc5c4)c3)CC2)=C(c2ccc(Cl)cc2)C1 [Venetoclax] (first compound max 10 µM, 7x7, partner max 1 µM)	-0.0158	-0.0285	-0.167	-0.0248	-0.0529	0.382	0.0236	0.262	0.0994	0.651	0.313	0.0684	0.105	0.107	0.412	0.283	0.0383	0.0514	0.238	0.28
C=CCn1c(=O)c2cnc(Nc3ccc(N4CCN(C)CC4)cc3)nc2n1-c1cccc(C(C)(C)O)n1 [AZD1775] + C[C@@H]1COCCN1C2=NC(=NC(=C2)C3(CC3)[S@](=N)(=O)C)C4=C5C=CNC5=NC=C4 [AZD6738] (first compound max 1 µM, partner max 10 µM)	0.0092	0.0259	-0.0271	0.0144	0.019	0.636	0.863	0.603	0.682	0.937	0.552	0.898	0.601	0.76	0.991	0.953	0.823	0.729	0.653	0.805
